Data published in PMC3128435 (Journal of physics. Condensed matter : an Institute of …, 2010).

Molecular target: maltoporin (Escherichia coli, UniProt P02943)
Experiment: single-channel current blockage in planar lipid bilayer
Assay type: binding
Conditions: 1.0 M NaCl, pH 7, 150 mV, 23 °C

Sequence of maltoporin (P02943 26-446): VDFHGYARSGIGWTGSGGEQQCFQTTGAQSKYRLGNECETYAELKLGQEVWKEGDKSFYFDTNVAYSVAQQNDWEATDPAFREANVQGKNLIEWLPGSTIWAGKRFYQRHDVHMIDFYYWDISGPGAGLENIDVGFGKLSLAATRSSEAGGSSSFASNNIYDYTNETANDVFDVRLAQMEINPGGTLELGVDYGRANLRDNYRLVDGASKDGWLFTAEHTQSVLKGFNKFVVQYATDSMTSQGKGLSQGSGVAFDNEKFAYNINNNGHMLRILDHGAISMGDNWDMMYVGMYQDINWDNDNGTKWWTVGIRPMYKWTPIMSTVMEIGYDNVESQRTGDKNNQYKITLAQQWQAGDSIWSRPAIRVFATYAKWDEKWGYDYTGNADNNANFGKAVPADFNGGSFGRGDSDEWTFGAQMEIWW

average lifetime of the channel complex (cis-side addition) [ms] | average lifetime of the channel complex [ms] | SMILES
7.3 ± 0.5 |  | OC[C@H]1O[C@@H]2O[C@H]3[C@H](O)[C@@H](O)[C@@H](O[C@H]4[C@H](O)[C@@H](O)[C@@H](O[C@H]5[C@H](O)[C@@H](O)[C@@H](O[C@H]6[C@H](O)[C@@H](O)[C@@H](O[C@H]7[C@H](O)[C@@H](O)[C@@H](O[C@H]8[C@H](O)[C@@H](O)[C@@H](O[C@H]1[C@H](O)[C@H]2O)O[C@@H]8CO)O[C@@H]7CO)O[C@@H]6CO)O[C@@H]5CO)O[C@@H]4CO)O[C@@H]3CO [CD, β-cyclodextrin]
 | 2.0 ± 0.3 | OC[C@H]1O[C@H](O[C@H]2[C@H](O)[C@@H](O)[C@@H](O[C@H]3[C@H](O)[C@@H](O)[C@@H](O[C@H]4[C@H](O)[C@@H](O)[C@@H](O[C@H]5[C@H](O)[C@@H](O)[C@@H](O[C@H]6[C@H](O)[C@@H](O)[C@@H](O[C@H]7[C@H](O)[C@@H](O)C(O)O[C@@H]7CO)O[C@@H]6CO)O[C@@H]5CO)O[C@@H]4CO)O[C@@H]3CO)O[C@@H]2CO)[C@H](O)[C@@H](O)[C@@H]1O (some centres unmarked) [m7, maltoheptaose]
